The numbers were not newly measured in article PMC6311893, “Computational prediction of plasma protein binding of cyclic peptides from small molecule experimental data using sparse modeling techniques” (BMC Bioinformatics, 2018), which cites them from elsewhere.

Where two headings read alike, the source gives them in different places.

This data set has as its system plasma protein. To be noted: cited from earlier work.
[1] abbreviates: fraction bound to plasma protein, small molecule dataset, sheet 1-SM, ref Ingle et al.
The mark [2] stands for this setting: fraction bound to plasma protein, small molecule dataset, sheet 1-SM (Set Dte = test, Dtr = training), ref Ingle et al.
[3] abbreviates: fraction bound to plasma protein, small molecule dataset, sheet 1-SM, Set Dtr, ref Ingle et al.

As to `CN(C)CCc1c[nH]c2ccc(C[C@H]3COC(=O)N3)cc12` [Zolmitriptan], the “PPB (fb)” value under setting [1] is reported as 0.25.
With `CN1CCOC(c2ccccc2)c2ccccc2C1` (centres unmarked) [nefopam], the “PPB (fb)” value under setting [1] is on record as 0.73.
Consider `CCc1oc2ccccc2c1C(=O)c1cc(Br)c(O)c(Br)c1` [benzbromarone], for which, under setting [2], the “PPB (fb)” value is 0.99.
For the molecule `COc1c(N2C[C@@H]3CCCN[C@@H]3C2)c(F)cc2c(=O)c(C(=O)O)cn(C3CC3)c12` [Moxifloxacin], the “PPB (fb)” value under setting [3] is given as 0.45.
Regarding `CC(C(=O)O)c1ccc(CC2CCCC2=O)cc1` (centres unmarked) [loxoprofen], the “PPB (fb)” value under setting [1] is listed as 0.96.
Regarding Pyridostigmine, the “PPB (fb)” value (plasma) is given as 0.
Take `CCCCC1=NC2(CCCC2)C(=O)N1Cc1ccc(-c2ccccc2-c2nnn[nH]2)cc1` [Irbesartan]: the “PPB (fb)” value under setting [3] is recorded as 0.9.
Turning to `CN1CC[C@]23c4c5ccc(OCCN6CCOCC6)c4O[C@H]2[C@@H](O)C=C[C@H]3[C@H]1C5` [pholcodine], under “plasma”, the “PPB (fb)” value is 0.24.
In the case of `CCN(CC)CCNC(=O)c1ccc(NS(C)(=O)=O)cc1` [Sematilide], the “PPB (fb)” value under setting [1] was 0.04.
In the case of `Clc1cccc(Cl)c1N=C1NCCN1` [Clonidine], the “PPB (fb)” value under setting [3] is 0.34.
In the case of `O=C(O)c1cc(O)c(O)c(O)c1` [gallic acid], under “plasma”, the “PPB (fb)” value is 0.32.
As for `COCC(=O)Nc1c(I)c(C(=O)NCC(O)CO)c(I)c(C(=O)N(C)CC(O)CO)c1I` (centres unmarked) [Iopromide], the “PPB (fb)” value under setting [3] is recorded as 0.01.
In the case of `CC1(C)C[C@@H]1C(=O)N/C(=C\CCCCSC[C@H](N)C(=O)O)C(=O)O` [Cilastatin], the “PPB (fb)” value (plasma) was 0.37.
For `Cc1cccc(Nc2ccncc2S(=O)(=O)NC(=O)NC(C)C)c1` [Torasemide], the “PPB (fb)” value under setting [1] is recorded as 0.99.
Consider Felodipine, for which, under “plasma”, the “PPB (fb)” value is on record as 1.
Take `CC(C(=O)NCCN1CCCC1)c1ccc(OS(=O)(=O)C(F)(F)F)cc1` (centres unmarked) [JMC_04]: the “PPB (fb)” value under setting [1] is on record as 0.7.
As for `CCN(CC)CCNC(=O)c1cc(Br)c(N)cc1OC` [Bromopride], the “PPB (fb)” value under setting [2] was 0.4.
Consider `CC1OC(OC2CC(O)(C(C)O)Cc3c(O)c4c(c(O)c32)C(=O)c2ccccc2C4=O)CC(N)C1O` (centres unmarked) [Idarubicinol], for which, under setting [1], the “PPB (fb)” value is 0.94.
`CC(C)(C)N1CCC(c2ccccc2)(c2ccccc2)CC1` [budipine]: under setting [2], the “PPB (fb)” value is given as 0.96.
In the case of `C[C@]12CCC(=O)C(O)=C1CC[C@@H]1[C@@H]2CC[C@]2(C)C(=O)CC[C@@H]12` [formestane], under “plasma”, the “PPB (fb)” value was 0.84.
As for `O=C(NCCO[N+](=O)[O-])c1cccnc1` [nicorandil], the “PPB (fb)” value under setting [1] is given as 0.25.
`CC(=O)NC(CS)C(=O)O` (centres unmarked) [Acetylcysteine__ N-]: under setting [3], the “PPB (fb)” value is 0.83.
`COC(CC(=O)NC1C(=O)N2C1SC(C)(C)C2C(=O)O)c1ccc(Cl)s1` (centres unmarked) [penicillin75]: under setting [2], the “PPB (fb)” value was 0.84.
As for `Cc1ccc(C(N)C(=O)NC2C(=O)N3C2SC(C)(C)C3C(=O)O)cc1` (centres unmarked) [penicillin27], the “PPB (fb)” value was 0.6.
In the case of `CCCNC(=O)NS(=O)(=O)c1ccc(Cl)cc1` [Chlorpropamide], the “PPB (fb)” value under setting [3] is 0.96.
Consider `CC1(C)O[C@@H]2C[C@H]3[C@@H]4CCC5=CC(=O)C=C[C@]5(C)[C@@]4(F)[C@@H](O)C[C@]3(C)[C@]2(C(=O)CO)O1` [Triamcinolone Acetonide], for which the “PPB (fb)” value under setting [1] is given as 0.8.
Take `NCCc1ccc(O)c(O)c1` [dopamine]: the “PPB (fb)” value under setting [2] is given as 0.1.
For the molecule `CC/C(=C(\c1ccccc1)c1ccc(OCCN(C)C)cc1)c1ccccc1` [tamoxifen], the “PPB (fb)” value under setting [1] was 0.99.
Regarding `CN(C/C=C/C#CC(C)(C)C)Cc1cccc2ccccc12` [terbinafine], under setting [1], the “PPB (fb)” value is recorded as 0.99.
As to `COc1cccc(OC)c1C(=O)N[C@@H]1C(=O)N2[C@@H]1SC(C)(C)[C@@H]2C(=O)O` [Methicillin], under setting [3], the “PPB (fb)” value was 0.48.
For `O=C1NCCN1CCN1CCC(c2cn(-c3ccc(F)cc3)c3ccc(Cl)cc23)CC1` [sertindole], the “PPB (fb)” value under setting [1] is on record as 0.99.
As to `Cc1cccc(C)c1NC(=O)c1cc(S(N)(=O)=O)c(Cl)cc1O` [xipamide], under setting [3], the “PPB (fb)” value is listed as 0.99.
In the case of `Oc1c(Cl)c(Cl)c(Cl)c(Cl)c1Cl` [pentachlorophenol], under “plasma”, the “PPB (fb)” value is on record as 0.99.
In the case of `Cn1cc(NC(=O)c2cc(NC(=O)c3cc(NC(=O)c4nsc(Cl)c4Cl)cn3C)cn2C)cc1C(=O)NCCC(=N)N` [GSQ1530], the “PPB (fb)” value under setting [1] is given as 0.89.
`O=C1NC(=O)C(c2ccccc2)(c2ccccc2)N1` [phenytoin]: the “PPB (fb)” value under setting [1] is on record as 0.91.
For `CCCc1oc(CCC(=O)O)c(C(=O)O)c1C`, the “PPB (fb)” value under setting [2] is 0.99.
As for `Cc1ccc(S(=O)(=O)NC(=O)NN2CCCCCC2)cc1` [tolazamide], the “PPB (fb)” value under setting [3] is listed as 0.97.
As for `CC(C)OC(=O)OCOP(=O)(CO[C@H](C)Cn1cnc2c(N)ncnc21)OCOC(=O)OC(C)C` [tenofovir disoproxil], under setting [1], the “PPB (fb)” value is reported as 0.07.
With `CO[C@H]1/C=C/O[C@@]2(C)Oc3c(C)c(O)c4c(O)c(c(/C=N/N5CCN(C)CC5)c(O)c4c3C2=O)NC(=O)/C(C)=C\C=C\[C@H](C)[C@H](O)[C@@H](C)[C@@H](O)[C@@H](C)[C@H](OC(C)=O)[C@@H]1C` [Rifampin], the “PPB (fb)” value under setting [1] is given as 0.77.
Consider `O=C1CN=C(c2ccccc2)c2cc(Cl)ccc2N1CC1CC1` [prazepam], for which the “PPB (fb)” value (plasma) is recorded as 0.97.
Turning to `COc1cc(/C=C/C(=O)O)ccc1O` [ferulic acid], the “PPB (fb)” value under setting [1] is given as 0.73.
In the case of `CN1C(C(=O)Nc2ccccn2)=C(O)c2ccccc2S1(=O)=O` [piroxicam], the “PPB (fb)” value under setting [1] is listed as 0.99.
As to `NCCC(O)(P(=O)(O)O)P(=O)(O)O` [pamidronic acid], the “PPB (fb)” value under setting [2] is given as 0.14.
For `CN(C)CC/C=C1\c2ccccc2CSc2ccccc21` [dothiepin], the “PPB (fb)” value under setting [1] was 0.85.
As to `O=C(NCC1CCCCN1)c1cc(OCC(F)(F)F)ccc1OCC(F)(F)F` (centres unmarked) [Flecainide], the “PPB (fb)” value under setting [2] was 0.5.
As for `NCCCC[C@H](N[C@@H](CCc1ccccc1)C(=O)O)C(=O)N1CCC[C@H]1C(=O)O` [Lisinopril], the “PPB (fb)” value under setting [3] is reported as 0.05.
For the molecule `CC(C)Nc1cccnc1N1CCN(C(=O)c2cc3cc(NS(C)(=O)=O)ccc3[nH]2)CC1` [delavirdine], the “PPB (fb)” value under setting [2] is 0.98.
Consider `CCCCC[C@H](O)/C=C/[C@H]1[C@H](O)CC(=O)[C@@H]1CCCCCCC(=O)O` [alprostadil], for which the “PPB (fb)” value under setting [2] is recorded as 0.92.
Regarding `O=C1[C@@H]2[C@H]3CC[C@H](C3)[C@@H]2C(=O)N1CCCCN1CCN(c2ncccn2)CC1` [tandospirone], the “PPB (fb)” value under setting [1] was 0.3.
For `CN(C)CCC=C1c2ccccc2COc2ccccc21` [Doxepin], the “PPB (fb)” value under setting [3] is recorded as 0.81.
With `Oc1ncnc2[nH]ncc12` [Allopurinol], the “PPB (fb)” value under setting [3] was 0.02.
In the case of `CN1C(=O)NC(=O)C(C)(C2=CCCCC2)C1=O` (centres unmarked) [Hexobarbital], the “PPB (fb)” value (plasma) was 0.47.
`COc1ccccc1-n1cc(C(=O)O)c(=O)c2cc(F)c(N3CCNCC3)cc21` [5a(o-OCH3)]: under setting [2], the “PPB (fb)” value is given as 0.29.
Turning to `CC[C@@]1(O)C[C@H](O[C@H]2C[C@H](N(C)C)[C@H](O[C@H]3C[C@H](O)[C@H](O[C@H]4CCC(=O)[C@H](C)O4)[C@H](C)O3)[C@H](C)O2)c2c(cc3c(c2O)C(=O)c2c(O)cccc2C3=O)[C@H]1C(=O)OC` [aclarubicin], the “PPB (fb)” value (plasma) is listed as 0.43.
`CC(C)NCC(O)c1ccc(NS(C)(=O)=O)cc1` (centres unmarked) [Sotalol]: the “PPB (fb)” value under setting [1] is 0.28.
For the molecule `COc1cc2c(cc1OC)C1CC(=O)C(CC(C)C)CN1CC2` (centres unmarked) [tetrabenazine], the “PPB (fb)” value under setting [1] is given as 0.85.
